Data from patent US12233070B2, “Methods for treating benzodiazepine misuse/use disorder” (University of M[…] Center, priority 2020, dated 2025).

Legend:
[1] = system: rhesus monkeys; details: visual recognition memory and spatial working memory; cited from earlier work
[2] = molecular target: α1 subunit-containing GABAA receptors (Homo sapiens, UniProt P14867+P18507); design: key to Subtype α1: act as partial positive modulators for particular subtype combinations; none: zero efficacy (i.e., antagonism) at other subtypes; details: cited from earlier work
[3] = molecular target: α2 subunit-containing GABAA receptors (Homo sapiens, UniProt P18507+P47869); design: key: act as partial positive modulators for particular subtype combinations; none: zero efficacy (i.e., antagonism) at other subtypes; details: cited from earlier work
[4] = molecular target: α3 subunit-containing GABAA receptors (Homo sapiens, UniProt P18507+P34903); design: key: act as partial positive modulators for particular subtype combinations; none: zero efficacy (i.e., antagonism) at other subtypes; details: cited from earlier work
[5] = molecular target: α5 subunit-containing GABAA receptors (Homo sapiens, UniProt P18507+P31644); design: key to Subtype α5: act as partial positive modulators for particular subtype combinations; none: zero efficacy (i.e., antagonism) at other subtypes; details: cited from earlier work
[6] = design: key to Pharmacokinetics: “poor” - low bioavailability and/or short half-life; “good” - potent with long half-life; details: in vivo; cited from earlier work
[7] = system: patients with Generalized Anxiety Disorder; details: cited from earlier work
[8] = system: rhesus monkeys; test: i.v. self-administration under progressive-ratio (PR) schedule; type: in vivo, rhesus monkey; details: dose at which self-administration was highest; n=4 monkeys; FIG. 5
Text: The abuse potential of novel compounds can be determined by use of i.v. self-administration procedures, in which a compound is available to a subject previously trained to press a lever to obtain a known drug of abuse. Our standard procedure is to use a progressive-ratio (PR) schedule, in which an increasing number of responses are required to obtain an injection. The last response requirement completed is referred to as a “break point” (BP) and represents the maximum amount of “work” a subject will perform to obtain the drug or compound.
In the present example, eight rhesus monkeys (4 females, 4 males) were trained to respond under a schedule of i.v. midazolam (a conventional benzodiazepine) injection at 0.03 mg/kg/injection. Once self-administration had been acquired (>20 injections/daily 2-hour sessions), monkeys were trained under the PR schedule as described by Shinday et al. (2013). Daily experimental sessions consisted of five components, each made up of four trials (i.e., 20 trials total). […]
In order to directly compare lorazepam and TPA023B self-administration, we here analyzed BP values at the doses that maintained the highest level of mean injections/session and compared these BP values with those obtained after vehicle tests.

[9] = system: Sprague-Dawley rats; test: Precipitated withdrawal/acute dependence: responding 60 min after diazepam bolus; type: in vivo, rat; details: ligand 3.0 mg/kg; FIG. 12B; N=5
Description: Acute dependence can occur after single exposures to the benzodiazepine chlordiazepoxide, but not to an α2/3GABAA selective ligand (Fischer et al. 2013, Psychopharmacology 227: 347-54). Here, the extent to which TPA023B can precipitate withdrawal in rats following a single, large bolus dose of diazepam was studied. […] Once rates of responding were stable, doses of diazepam, the non-selective benzodiazepine antagonist flumazenil, and TPA023B were administered prior to the session.

[10] = system: rats; test: Blockade of diazepam suppression of responding (30 min pretreatment); type: in vivo, rat; details: ligand 3.0 mg/kg; diazepam 30 min pretreatment; FIG. 12A; N=5
Description: This profile is very similar to that of TPA023B despite the structural differences. […] For both compounds, we chose 3.0 mg/kg, i.p., in rats based on published literature or pilot studies in our laboratories.
FIGS. 12A and 12B illustrate the results of acute dependency testing using these compounds.

[11] = rhesus monkey, cited from earlier work
[12] = system: GABAA receptor subtypes; details: cited from earlier work

α1 subunit-containing GABAA receptors, sequence (P14867 28-456): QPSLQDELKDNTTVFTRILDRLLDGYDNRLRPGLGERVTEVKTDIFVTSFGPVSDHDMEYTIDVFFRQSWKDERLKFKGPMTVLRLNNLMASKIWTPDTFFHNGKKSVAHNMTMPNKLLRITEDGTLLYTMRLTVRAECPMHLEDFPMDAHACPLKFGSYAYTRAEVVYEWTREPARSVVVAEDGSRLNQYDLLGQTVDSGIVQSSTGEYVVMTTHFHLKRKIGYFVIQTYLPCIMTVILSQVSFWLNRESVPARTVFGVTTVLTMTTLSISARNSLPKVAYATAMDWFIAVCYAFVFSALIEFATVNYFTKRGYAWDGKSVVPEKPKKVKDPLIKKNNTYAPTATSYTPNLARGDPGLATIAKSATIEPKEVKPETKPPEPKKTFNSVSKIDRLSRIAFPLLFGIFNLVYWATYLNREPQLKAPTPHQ
α1 subunit-containing GABAA receptors, sequence (P18507 40-475): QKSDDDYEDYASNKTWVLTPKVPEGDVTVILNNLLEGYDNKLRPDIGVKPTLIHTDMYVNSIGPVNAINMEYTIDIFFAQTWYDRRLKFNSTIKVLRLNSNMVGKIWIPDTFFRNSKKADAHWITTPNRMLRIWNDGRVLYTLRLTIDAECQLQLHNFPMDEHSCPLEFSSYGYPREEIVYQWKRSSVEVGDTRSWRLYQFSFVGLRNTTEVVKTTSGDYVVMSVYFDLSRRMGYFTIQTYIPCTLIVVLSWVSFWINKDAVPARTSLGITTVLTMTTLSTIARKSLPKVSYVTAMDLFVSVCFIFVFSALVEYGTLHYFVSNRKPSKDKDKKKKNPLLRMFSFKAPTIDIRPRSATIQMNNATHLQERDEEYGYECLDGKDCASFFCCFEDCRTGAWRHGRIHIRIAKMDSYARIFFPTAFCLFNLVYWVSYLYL
α1 subunit-containing GABAA receptors, sequence (P28472 26-473 partner): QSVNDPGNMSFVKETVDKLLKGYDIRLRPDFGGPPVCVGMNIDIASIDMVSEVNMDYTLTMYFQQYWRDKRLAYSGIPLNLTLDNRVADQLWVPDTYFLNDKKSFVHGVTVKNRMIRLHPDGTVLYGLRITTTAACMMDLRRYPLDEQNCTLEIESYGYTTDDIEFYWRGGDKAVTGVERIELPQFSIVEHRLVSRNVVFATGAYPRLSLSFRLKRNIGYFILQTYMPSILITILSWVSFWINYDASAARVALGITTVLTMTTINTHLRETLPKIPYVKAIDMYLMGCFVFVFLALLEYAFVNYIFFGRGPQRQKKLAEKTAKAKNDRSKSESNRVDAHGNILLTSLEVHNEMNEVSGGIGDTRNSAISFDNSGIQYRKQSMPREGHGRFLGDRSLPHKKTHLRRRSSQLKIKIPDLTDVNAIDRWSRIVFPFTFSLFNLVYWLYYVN
α5 subunit-containing GABAA receptors, sequence (P31644 32-462): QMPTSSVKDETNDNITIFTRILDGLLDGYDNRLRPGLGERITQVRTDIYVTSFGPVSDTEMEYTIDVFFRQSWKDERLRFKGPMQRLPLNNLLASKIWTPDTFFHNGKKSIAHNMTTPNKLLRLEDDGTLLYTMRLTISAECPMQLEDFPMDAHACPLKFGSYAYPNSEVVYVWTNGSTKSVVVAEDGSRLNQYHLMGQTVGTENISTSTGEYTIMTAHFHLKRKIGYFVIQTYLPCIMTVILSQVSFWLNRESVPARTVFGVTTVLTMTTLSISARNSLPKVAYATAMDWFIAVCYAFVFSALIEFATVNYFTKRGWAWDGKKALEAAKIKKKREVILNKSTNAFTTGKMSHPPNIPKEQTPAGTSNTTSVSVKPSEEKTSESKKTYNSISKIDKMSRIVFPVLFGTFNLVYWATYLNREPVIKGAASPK
α5 subunit-containing GABAA receptors, sequence (P18507 40-475): as the sequence (P18507 40-475) above
α5 subunit-containing GABAA receptors, sequence (P28472 26-473 partner): as the sequence (P28472 26-473 partner) above
α3 subunit-containing GABAA receptors, sequence (P34903 29-492): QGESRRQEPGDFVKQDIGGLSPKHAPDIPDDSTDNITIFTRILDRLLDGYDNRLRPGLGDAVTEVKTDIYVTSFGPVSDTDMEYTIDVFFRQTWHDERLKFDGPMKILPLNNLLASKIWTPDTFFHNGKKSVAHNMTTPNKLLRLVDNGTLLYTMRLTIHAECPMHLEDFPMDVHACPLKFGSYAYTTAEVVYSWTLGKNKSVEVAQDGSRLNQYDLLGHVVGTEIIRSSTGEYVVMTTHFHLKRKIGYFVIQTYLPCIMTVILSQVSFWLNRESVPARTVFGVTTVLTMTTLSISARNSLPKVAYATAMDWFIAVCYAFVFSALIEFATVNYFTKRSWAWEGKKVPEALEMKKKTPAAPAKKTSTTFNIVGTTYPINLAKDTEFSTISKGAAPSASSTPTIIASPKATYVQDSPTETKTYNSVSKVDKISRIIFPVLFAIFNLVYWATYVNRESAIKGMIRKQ
α3 subunit-containing GABAA receptors, sequence (P18507 40-475): as the sequence (P18507 40-475) above
α3 subunit-containing GABAA receptors, sequence (P28472 26-473 partner): as the sequence (P28472 26-473 partner) above
α2 subunit-containing GABAA receptors, sequence (P47869 29-451): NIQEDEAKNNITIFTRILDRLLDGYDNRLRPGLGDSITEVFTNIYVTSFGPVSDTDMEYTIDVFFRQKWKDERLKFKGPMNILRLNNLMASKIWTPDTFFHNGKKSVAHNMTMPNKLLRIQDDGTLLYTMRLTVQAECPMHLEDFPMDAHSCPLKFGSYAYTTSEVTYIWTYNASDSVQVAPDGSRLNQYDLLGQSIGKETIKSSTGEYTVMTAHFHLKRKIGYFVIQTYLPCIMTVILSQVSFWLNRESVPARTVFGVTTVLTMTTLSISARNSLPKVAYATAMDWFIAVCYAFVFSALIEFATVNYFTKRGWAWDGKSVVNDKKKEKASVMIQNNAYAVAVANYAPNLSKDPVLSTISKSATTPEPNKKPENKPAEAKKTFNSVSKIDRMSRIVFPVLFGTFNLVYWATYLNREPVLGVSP
α2 subunit-containing GABAA receptors, sequence (P18507 40-475): as the sequence (P18507 40-475) above
α2 subunit-containing GABAA receptors, sequence (P28472 26-473 partner): as the sequence (P28472 26-473 partner) above

Row | Structure (SMILES) | Subtype α1 [2] | Subtype α2 [3] | Subtype α3 [4] | Subtype α5 [5] | Pharmacokinetics [6] | further results
1 | Cc1nnc2n1-c1ccc(Cl)cc1C(c1ccccc1Cl)=NC2 [triazolam, reference compound] |  |  |  |  |  | accuracy in DMTS and SOSS tasks [1]: significantly reduced accuracy
2 | CCn1ncnc1COc1nn2c(-c3ccccc3F)nnc2cc1C(C)(C)C [TPA023] | none | partial | partial | none | good | efficacy at α1GABAA subtype [2]: no efficacy; adverse effects leading to halt in Phase II ([7]; human, in vivo): cataract development; anxiolysis in patients with Generalized Anxiety Disorder ([7]; post hoc analyses, three clinical trials): significant anxiolysis
3 | O=C1Nc2ccc(Cl)cc2C(c2ccccc2Cl)=NC1O (centres unmarked) [lorazepam, reference compound] |  |  |  |  |  | median break point (BP), highest response requirement [8]: 320
4 | CC(C)(O)c1ccn2c(-c3ccc(F)c(-c4cccnc4)c3)cnc2n1 [MRK-623] | none | partial | partial | none | poor | rates of responding after 60-min pretreatment of diazepam (acute dependence) [9]: neither L-838,417 nor MRK-623 altered rates of responding; ability of diazepam to suppress rates of responding [10]: blocked; bioavailability (in words) ([11]; in vivo): fair; half-life [11]: 30 min; functional/subtype selectivity [12]: α2/3GABAA subtype selective
